The record followed here is publication PMC7617456, “Cryptosporidium lysyl-tRNA synthetase inhibitors define the interplay between solubility and permeability required to achieve efficacy” (Science translational medicine, 2024).

The nature of data set [1]: Aqueous (kinetic) solubility by UHPLC. The note with it: 25 °C, aqueous buffer, kinetic from dmso stock, PBS pH 7.4, UHPLC. The class given is physicochemical. On the procedure:
As previously described.(27) […]
samples were prepared by adding 5 µL stock to PBS pH 7.4 (195 µL). This solution was mixed […]
The solubility test samples were […]
vacuum ﬁ ltered (Millipore Multiscreen HTS ﬁ lter, 96-well format) to remove any undissolved […]
material. The ﬁ ltrate was analyzed for dissolved drug compound using a truncated UHPLC […]
methodology. A calibration solution was prepared for each test compound. The 10 mM stock […]
solution was diluted in DMSO to give a 500 µM solution. This was further diluted with 50:50 […]
acetonitrile:water to give a 50 µM solution. Aliquots (0.2, 2.0, and 5.0 µL) of this 50 µM solution were injected onto the UHPLC system, and the areas of the resultant peaks were […]
integrated to produce a calibration line. Aliquots of the test sample ﬁ ltrate (0.4 and 5.0 µL) […]
were injected onto the UHPLC system and the resultant test compound peak areas quantiﬁ ed […]
using the calibration line. […]

Data set [2] deals with transgenic C. parvum that express NanoLuciferase. Briefly: NOD SCID Gamma chronic mouse efficacy model. Particulars: 50 mg/kg BID oral 7 days from day 36 PI. The class given is in vivo. The method, then: We next developed a mouse efficacy model that mimics chronic infection. In this model, NOD SCID Gamma mice were allowed to become highly infected (>10^9 RLU) and maintain this for a minimum of one week before compound treatment was administered (Fig. 4C). To achieve efficacy against this chronic infection, compounds must kill more parasites, offering a more rigorous method for assessing suitability for progression.
Male NOD SCID Gamma mice (NOD.Cg-Prkdc^scid Il2rgtm1Wjl/SzJ; purchased from Charles Rivers) aged 10 weeks old were used (n = 4 mice per experimental group). Mice were infected by oral gavage (5,000 oocysts of Δtk::mNeon-Neo^R). Oocyst shedding in feces was determined by NanoLuciferase assay as described above. Once infection became chronic (at least 1 week of fecal RLUs/g at >10^9), compounds were administered. DDD489 was prepared in HPMC without DMSO and administered by oral gavage at 50 mg/kg starting day 36 post infection. Early lead compound DDD706 served as the positive control (administered at 20 mg/kg QD). Fecal samples were pooled from all mice in the cage on days indicated.

Data set [3] has as its system wild type parasites (WT). As to the kind of experiment: Transgenic C. parvum NanoLuciferase drug sensitivity assay, WT. The class given is cell-based. The note with it: Cryptosporidium parvum, HCT-8, 48 h, read-out: EC50, WT.
For data set [4], the system named is P-gp (MDR1). As to the kind of experiment: in vitro. The note with it: dog, MDCK-MDR1.
Data set [5] in a line: Hepatocyte intrinsic clearance, dog. The format is in vitro ADME. Particulars: dog hepatocytes.
A short description of data set [6]: Plasma protein binding, rat. The class given is in vitro ADME. Particulars: read-out: PPB (r) (converted).
Data set [7] deals with CYP450 1A2 (Homo sapiens, UniProt P05177). As to the kind of experiment: CYP450 inhibition 1A2. The class given is in vitro ADME. The method, then: (§1) CYP450 inhibition (Dundee)
Sequence of CYP450 1A2 (P05177 whole entry): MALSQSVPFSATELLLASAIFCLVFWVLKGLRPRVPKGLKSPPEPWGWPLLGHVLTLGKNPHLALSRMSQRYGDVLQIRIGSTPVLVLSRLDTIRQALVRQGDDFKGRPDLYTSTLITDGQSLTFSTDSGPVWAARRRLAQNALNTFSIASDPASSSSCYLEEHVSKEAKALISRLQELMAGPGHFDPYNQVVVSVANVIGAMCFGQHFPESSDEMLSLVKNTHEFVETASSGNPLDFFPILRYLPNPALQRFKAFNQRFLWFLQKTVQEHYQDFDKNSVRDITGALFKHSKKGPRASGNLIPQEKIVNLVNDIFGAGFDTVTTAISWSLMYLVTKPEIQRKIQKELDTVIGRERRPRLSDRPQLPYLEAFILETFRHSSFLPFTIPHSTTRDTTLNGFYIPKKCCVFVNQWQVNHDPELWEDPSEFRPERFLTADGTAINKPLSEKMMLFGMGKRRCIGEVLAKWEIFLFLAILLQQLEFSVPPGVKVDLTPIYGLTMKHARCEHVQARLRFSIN
(§2) As previously described.(31)
(§3) DDD489 and DDD508 were evaluated for their ability to induce reverse mutations both in the presence and absence of S9 mix at the histidine locus in the genome of four strains of Salmonella typhimurium (TA98, TA100, TA1535, and TA97a) and at the tryptophan locus in the genome of Escherichia coli WP2 uvrA in a mini-Ames study conducted at WuXi App Tec […]
(§4) hERG inhibition (WuXi App Tec)
(§5) DDD489 and DDD508 were evaluated for their effects on cloned hERG potassium channels stably expressed in Chinese Hamster Ovary (CHO) cells using manual patch-clamp technique in a hERG inhibition assay conducted at WuXi App Tec (Suzhou).
(§6) Mitochondrial toxicity (Cyprotex)
(§7) DDD489 and DDD508 were evaluated for their effects on mitochondrial function in a functional mitochondrial toxicity assay using Seahorse XFe96 flux analyser conducted at […]
(§8) 44 screen safety panel (Eurofins)
(§9) DDD489 was evaluated for off-target effects in a SafetyScreen44 panel at Eurofins Cerep.
(§10) All regulated procedures, at the University of Dundee, on living animals were carried out under the authority of a project license issued by the Home Office under the Animals (Scientific Procedures) Act 1986, as amended in 2012 (and in compliance with EU Directive EU/2010/63). […]

The target in data set [8] is CYP450 2C19 (Homo sapiens, UniProt P33261). As to the kind of experiment: CYP450 inhibition 2C19. The class given is in vitro ADME. On the procedure: as §1, §2, §3, §4, §5, §6, §7, §8, §9, §10
Sequence of CYP450 2C19 (P33261 whole entry): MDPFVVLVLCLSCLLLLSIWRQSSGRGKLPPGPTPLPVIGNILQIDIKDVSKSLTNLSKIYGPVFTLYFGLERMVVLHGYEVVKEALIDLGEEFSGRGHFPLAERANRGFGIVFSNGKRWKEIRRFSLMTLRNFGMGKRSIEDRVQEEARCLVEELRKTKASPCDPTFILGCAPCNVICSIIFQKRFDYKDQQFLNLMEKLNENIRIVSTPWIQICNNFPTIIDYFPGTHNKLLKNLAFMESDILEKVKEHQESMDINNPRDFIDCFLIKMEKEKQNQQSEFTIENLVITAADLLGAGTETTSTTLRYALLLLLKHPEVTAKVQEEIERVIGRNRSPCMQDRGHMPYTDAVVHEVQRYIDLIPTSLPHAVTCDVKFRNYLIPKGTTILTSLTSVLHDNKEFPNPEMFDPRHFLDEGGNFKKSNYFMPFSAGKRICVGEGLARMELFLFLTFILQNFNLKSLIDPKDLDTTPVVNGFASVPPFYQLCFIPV
Data set [9] concerns the target T1, hERG potassium channels (Homo sapiens, UniProt Q12809).
T1 construct: host or cells: Chinese Hamster Ovary (CHO) cells
Briefly: hERG inhibition, manual patch-clamp. The format is cell-based. The note with it: CHO cells. On the procedure: as §4
DDD489 and DDD508 were evaluated for their effects on cloned hERG potassium channels stably expressed in Chinese Hamster Ovary (CHO) cells using manual patch-clamp technique in a hERG inhibition assay conducted at WuXi App Tec (Suzhou). […]
(Block of hERG is tested as a sign of cardiac risk.)

Data set [10] deals with T2, 5-HT transporter (h) (Homo sapiens, UniProt P31645).
T2 construct: Eurofins Cerep
T2 sequence (P31645 whole entry): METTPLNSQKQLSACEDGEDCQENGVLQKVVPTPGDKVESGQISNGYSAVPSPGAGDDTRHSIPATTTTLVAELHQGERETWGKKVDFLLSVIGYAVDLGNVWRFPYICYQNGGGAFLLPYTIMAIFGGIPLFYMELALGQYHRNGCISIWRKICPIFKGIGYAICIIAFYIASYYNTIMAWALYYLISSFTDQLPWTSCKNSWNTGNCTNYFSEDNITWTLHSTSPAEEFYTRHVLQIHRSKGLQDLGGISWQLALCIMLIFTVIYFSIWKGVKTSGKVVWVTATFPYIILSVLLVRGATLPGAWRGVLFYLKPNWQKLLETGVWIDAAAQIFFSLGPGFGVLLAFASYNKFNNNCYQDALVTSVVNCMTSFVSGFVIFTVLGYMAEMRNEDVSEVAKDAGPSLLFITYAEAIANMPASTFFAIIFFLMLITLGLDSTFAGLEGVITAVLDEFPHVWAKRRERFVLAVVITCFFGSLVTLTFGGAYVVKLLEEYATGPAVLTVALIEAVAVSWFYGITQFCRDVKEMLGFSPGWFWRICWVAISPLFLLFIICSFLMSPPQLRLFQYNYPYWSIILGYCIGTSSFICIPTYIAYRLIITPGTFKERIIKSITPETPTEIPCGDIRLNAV
As to the kind of experiment: SafetyScreen44 panel: 5-HT transporter. The format is binding.
From the text: as §2
Table S2. ADME properties and in vitro assessment of toxicity/off-target effects for DDD489 and […]
Data are from a single biological replicate. (A) In vitro ADME properties. FaSSIF is Fasted State Simulated Intestinal Fluid Solubility. MDCK-MDR1 is a Madin-Darby canine kidney cell line transfected with the MDR1 gene, encoding for the efflux protein, P-glycoprotein (P-gp). Papp is apparent permeability, measured in the presence of P-gp inhibitor, GF120918. Efflux ratio is calculated as the ratio of Papp B-A/A-B. CHIlogD is chromatographic hydrophobicity index logD, measured at pH 7.4. clogP is calculated logP, determined by […]
Heps Cli is liver hepatocyte intrinsic clearance,
PPB is plasma protein binding.
Data quoted is percent bound. M=mouse, r=rat, d=dog, b=bovine, h=human. (B) In vitro toxicity assays. Cyp450
IC50 is cytochrome p450 enzyme inhibition. Mini-Ames was conducted in the presence and absence of S9 mix in four strains of Salmonella typhimurium. hERG IC50 is human ether-a-go-go related gene inhibition, measured using manual patch-clamp technique. (C) Mitochondrial toxicity assay data. (D) In a safety p anel of receptors and […]

Molecules are shown by their SMILES. ≈ marks a conversion by molar mass, not a printed value. Some results are limits rather than exact numbers.

T1 sequence (Q12809 whole entry): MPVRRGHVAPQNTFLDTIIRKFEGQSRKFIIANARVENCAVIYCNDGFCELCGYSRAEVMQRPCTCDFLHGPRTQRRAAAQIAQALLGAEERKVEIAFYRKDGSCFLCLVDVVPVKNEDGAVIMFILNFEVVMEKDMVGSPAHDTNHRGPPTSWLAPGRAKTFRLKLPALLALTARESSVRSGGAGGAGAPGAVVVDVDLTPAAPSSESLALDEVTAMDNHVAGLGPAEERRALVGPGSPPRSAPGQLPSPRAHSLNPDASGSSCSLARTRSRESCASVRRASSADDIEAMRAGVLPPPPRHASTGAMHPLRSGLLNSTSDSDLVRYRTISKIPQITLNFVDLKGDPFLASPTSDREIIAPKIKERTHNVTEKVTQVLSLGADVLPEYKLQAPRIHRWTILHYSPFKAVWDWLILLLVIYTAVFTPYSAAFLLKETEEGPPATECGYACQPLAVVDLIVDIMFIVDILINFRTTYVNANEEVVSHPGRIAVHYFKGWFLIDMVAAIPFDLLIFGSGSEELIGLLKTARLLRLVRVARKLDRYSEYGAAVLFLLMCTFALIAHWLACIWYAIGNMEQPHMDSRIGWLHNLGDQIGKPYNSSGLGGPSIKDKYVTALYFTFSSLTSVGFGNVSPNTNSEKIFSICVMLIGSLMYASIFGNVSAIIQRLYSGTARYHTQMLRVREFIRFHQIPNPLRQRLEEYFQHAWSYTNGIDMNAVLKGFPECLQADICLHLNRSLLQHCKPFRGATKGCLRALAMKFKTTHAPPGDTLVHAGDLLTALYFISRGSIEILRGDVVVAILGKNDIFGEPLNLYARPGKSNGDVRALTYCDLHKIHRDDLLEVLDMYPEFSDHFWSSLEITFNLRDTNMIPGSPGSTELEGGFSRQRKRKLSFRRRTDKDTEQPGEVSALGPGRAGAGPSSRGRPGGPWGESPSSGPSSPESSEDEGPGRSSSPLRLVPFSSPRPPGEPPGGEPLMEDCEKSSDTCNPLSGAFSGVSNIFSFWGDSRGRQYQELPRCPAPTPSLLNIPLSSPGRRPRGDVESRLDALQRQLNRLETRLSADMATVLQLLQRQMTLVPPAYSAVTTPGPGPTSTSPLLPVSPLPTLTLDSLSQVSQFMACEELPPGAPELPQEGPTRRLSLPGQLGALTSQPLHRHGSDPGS

What is called solubility is the concentration that dissolves in the medium under given conditions. A lower solubility goes with a poorly soluble substance. One may read the EC50 as the concentration that produces a half-maximal response. As usually defined, the efflux ratio is the permeability from basolateral to apical divided by that in the opposite direction, in the common usage. Usually IC50 stands for the concentration needed to halve the response being measured. A low value points to greater potency in that assay. In general, inhibition refers to the percentage by which the read-out fell short of the control. Higher therefore signals a strong effect. `Nc1nc2c(c(C(F)(F)F)n1)C(=O)N(CC1CCCC(C(F)(F)F)C1)C2` (stereo not shown) [DDD489] came in with a solubility at 24 h in data set [1] of 21 µM (≈ 8.03 µg/mL). Besides, in data set [2], the “parasite shedding by end of treatment period” value is listed as “reduce parasite shedding below the LOQ”. Also, in [2], the recrudescence entry is “failed to prevent recrudescence”. Moreover, in data set [3], the EC50 was 0.085 µM. Moreover, the efflux ratio in data set [4] was 1.3. In data set [5], the “Heps CLi (d)” value was 1.8 mL/min/g. In addition, in data set [6], the fraction unbound was 0.42. The IC50 is 40 µM in data set [7], over 100 µM in [8] and over 30 µM in data set [9]. In [10], this compound registered an inhibition at 10 µM of 62%.

`O=C(NCC1(O)CCCCC1)c1cc(=O)c2cc(O)ccc2o1` [DDD508]: the solubility at 24 h in data set [1] was 184 µM (≈ 58.4 µg/mL). Also, in data set [3], the EC50 is 0.27 µM. For the same compound, the efflux ratio in data set [4] was found to be 9.5. Also, the “Heps CLi (d)” value in [5] is given as 1.2 mL/min/g. The fraction unbound in data set [6] was 0.47. The IC50 is over 100 µM in data set [7], over 100 µM in data set [8] and over 30 µM in data set [9].
